Source: paper PMC6316393, “Cytotoxic Sesterterpenes from Thai Marine Sponge Hyrtios erectus” (Marine Drugs, 2018)
Read-outs that look alike come from different tables or passages of the source.

Columns and labels:
[1] = test system: MOLT-3 (acute lymphoblastic leukemia); test: XTT cytotoxicity assay, MOLT-3; details: for selectivity index (SI), MOLT-3: ratio of IC50 of normal cell (MRC-5) and IC50 of MOLT-3
Description: (§1) The SI value is the ratio of IC50 of normal cell (MRC-5) and IC50 of cancer cell line.
(§2) Cytotoxic activity for adhesive cell lines including HepG2, HeLa, HuCCA-1, A549, H69AR, KB, T47D, MDA-MB-231, and MRC-5 cell lines were evaluated with the 3-(4,5-dimethylthiazol-2-yl)-2,5-diphenyltetrazoliumbromide (MTT) assay. For the non-adhesive MOLT-3 cell line, the cytotoxicity was assessed using the 2,3-bis-(2-methoxy-4-nitro-5-sulphenyl-(2H)-tetrazolium-5-carboxanilide (XTT) assay. Etoposide and doxorubicin were used as positive controls (Table 4)

HepG2 (hepatocarcinoma) = test: MTT cytotoxicity assay, HepG2
Description: as §1, §2

[2] = test system: HeLa (human cervical carcinoma); test: MTT cytotoxicity assay, HeLa
Description: as §1, §2

[3] = test system: HuCCA-1 (human chlolangiocarcinoma); test: MTT cytotoxicity assay, HuCCA-1
Description: as §1, §2

[4] = test system: A549 (non-small-cell lung cancer); test: MTT cytotoxicity assay, A549
Description: as §1, §2

[5] = test system: MDA-MB-231 (hormone independent breast cancer); test: MTT cytotoxicity assay, MDA-MB-231
Description: as §1, §2

[6] = MTT cytotoxicity assay, MRC-5 normal cells; details: human
Description: as §1, §2

[7] = test system: MRC-5 (normal embryonic lung cell); test: MTT cytotoxicity assay, MRC-5 normal cells; details: read-out: Cytotoxicity IC50, MRC-5; MRC-5 normal cell line, MTT assay
Description: as §1, §2

[8] = test system: L1210 (mouse lymphocytic leukemia); details: read-out: Cytotoxicity IC50, L1210, cited from earlier work
[9] = test system: KB (mouth epidermal carcinoma); parameters: method as in PMID 8149454; details: previously reported; read-out: Cytotoxicity IC50, KB; cited from earlier work
[10] = test system: H69AR (multidrug resistance small-cell lung cancer); test: MTT cytotoxicity assay, H69AR; type: cell-based; details: Homo sapiens, H69AR cell line
Description: (§3) Cytotoxic activity for adhesive cell lines including HepG2, HeLa, HuCCA-1, A549, H69AR, KB, T47D, MDA-MB-231, and MRC-5 cell lines were evaluated with the 3-(4,5-dimethylthiazol-2-yl)-2,5-diphenyltetrazoliumbromide (MTT) assay [25, 26]. For the non-adhesive MOLT-3 cell line, the cytotoxicity was assessed using the 2,3-bis-(2-methoxy-4-nitro-5-sulphenyl-(2H)-tetrazolium-5-carboxanilide (XTT) assay [27]. Etoposide and doxorubicin were used as positive controls (Table 4)

[11] = test system: KB (human epidermoid carcinoma in the mouth); test: MTT cytotoxicity assay, KB; type: cell-based; details: KB cell line
Description: as §1, §2

[12] = test system: T47D (hormone dependent breast cancer); test: MTT cytotoxicity assay, T47D; type: cell-based; details: Homo sapiens, T47D cell line
Description: as §3

A549 cells = test system: A549 cells; parameters: method as in PMID 12662110; details: reported in the literature; read-out: Cytotoxicity IC50, A549; cited from earlier work
[13] = Homo sapiens, MOLT-3, read-out: Cytotoxicity IC50, MOLT-3, MOLT-3 cell line, XTT assay
[14] = Homo sapiens, HepG2, read-out: Cytotoxicity IC50, HepG2, HepG2 cell line, MTT assay
[15] = Homo sapiens, HeLa, read-out: Cytotoxicity IC50, HeLa, HeLa cell line, MTT assay
[16] = Homo sapiens, HuCC-A1, read-out: Cytotoxicity IC50, HuCCA-1, HuCCA-1 cell line, MTT assay
[17] = Homo sapiens, A549, read-out: Cytotoxicity IC50, A549, A549 cell line, MTT assay
[18] = Homo sapiens, MDA-MB-231, read-out: Cytotoxicity IC50, MDA-MB-231, MDA-MB-231 cell line, MTT assay
[19] = read-out: Cytotoxicity IC50, HeLa, HeLa cell line, MTT assay
[20] = read-out: Cytotoxicity IC50, MDA-MB-231, MDA-MB-231 cell line, MTT assay
[21] = MRC-5 cells (normal embryonic lung cells), Cytotoxicity IC50, MRC-5, MRC-5 normal cell line, MTT assay
[22] = Homo sapiens, MOLT-3, read-out: Cytotoxicity IC50, MOLT-3
[23] = Homo sapiens, HepG2, read-out: Cytotoxicity IC50, HepG2
[24] = Homo sapiens, HeLa, read-out: Cytotoxicity IC50, HeLa
[25] = Homo sapiens, HuCC-A1, read-out: Cytotoxicity IC50, HuCCA-1
[26] = Homo sapiens, A549, read-out: Cytotoxicity IC50, A549
[27] = Homo sapiens, MDA-MB-231, read-out: Cytotoxicity IC50, MDA-MB-231

Row | Compound | IC50 [1, 13] | IC50 (HepG2 (hepatocarcinoma); [14]) | IC50 [2, 15] | IC50 [3, 16] | IC50 [4, 17] | IC50 [5, 18] | also measured
1 | 4-((2R)-2-hydroxy-16-methyloctadecyl)furan-2(5H)-one [Compound 5] | – | – | – | – | – | – | IC50 [1]: 31.8 µM; IC50 (HepG2 (hepatocarcinoma)): 107 µM; IC50 [2]: 28.8 µM; IC50 [3]: 65.6 µM; IC50 [4]: 57.2 µM; IC50 [5]: 89.3 µM
2 | COC1OC(=O)C=C1C(O)CC=C(C=O)CCC=C(C)CCC1=C(C)CCCC1(C)C (stereo not drawn) [Compound 3, seco-manoalide-25-methyl ether] | 15.8 µM | 27.9 µM | 20 µM | 24.7 µM | 41.1 µM | 40.1 µM | –
3 | CC(=O)OC/C(=C\CC1OC(=O)C=C1CO)CC/C=C(\C)CCC1=C(C)CCCC1(C)C (stereo not drawn) [Compound 7, (6Z)-neomanoalide-24-acetate] | 40.1 µM | > 50 µg/mL | 88 µM | > 50 µg/mL | > 50 µg/mL | > 50 µg/mL | –
4 | COC1OC(C2=CC(=O)OC2O)CC=C1CCC=C(C)CCC1=C(C)CCCC1(C)C (stereo not drawn) [Compound 8, 24-O-methylmanoalide] | 1.77 µM | 53.5 µM | – | 11 µM | 16.8 µM | – | selectivity index (SI), MOLT-3 [1]: 7; IC50 [2, 19]: 8.42 µM; IC50 [5, 20]: 39.5 µM; IC50 [6, 21]: 13 µM
5 | COC1OC(C2=CC(=O)OC2O)CC=C1CCC=C(C)CCC1=C(C)CCCC1(C)C (stereo not drawn) [Compound 9, 24-O-methylmanoalide] | – | – | – | – | – | – | selectivity index (SI), MOLT-3 [1]: 8; IC50 ([1]; read-out: Cytotoxicity IC50, MOLT-3, MOLT-3 cell line, XTT assay): 1.3 µM; IC50 (HepG2 (hepatocarcinoma); read-out: Cytotoxicity IC50, HepG2, HepG2 cell line, MTT assay): 27.9 µM; selectivity index (SI), HeLa ([2]; ratio of IC50 of normal cell (MRC-5) and IC50 of HeLa): 7; IC50 [2, 19]: 1.51 µM; IC50 ([3]; read-out: Cytotoxicity IC50, HuCCA-1, HuCCA-1 cell line, MTT assay): 8.6 µM; IC50 ([4]; read-out: Cytotoxicity IC50, A549, A549 cell line, MTT assay): 12 µM; IC50 [5, 20]: 18.6 µM; IC50 [7]: 10.8 µM
6 | CC1=C(CC/C(C)=C/CC/C(=C/C[C@@H](O)C2=CC(=O)OC2)CO)C(C)(C)CCC1 [Compound 10, luffariolide B] | 35.5 µM | > 50 µg/mL | 78.7 µM | > 50 µg/mL | > 50 µg/mL | > 50 µg/mL | IC50 [8]: 3.23 µM
7 | CC1=C(CC/C(C)=C/CCC2=CC[C@H](C3=CC(=O)O[C@H]3O)O[C@H]2O)C(C)(C)CCC1 [Compound 11, manoalide] | – | – | – | – | – | – | IC50 [1, 22]: 17.4 µM; IC50 (HepG2 (hepatocarcinoma); [23]): > 50 µg/mL; IC50 [2, 24]: 87 µM; IC50 [3, 25]: 84.5 µM; IC50 [4, 26]: > 50 µg/mL; IC50 [5, 27]: > 50 µg/mL; IC50 ([8]; previously reported): 0.053 µM; IC50 [9]: 0.63 µM
8 | CC1=C(CC/C(C)=C/CC/C(=C\CC2OC(=O)C=C2CO)CO)C(C)(C)CCC1 (stereo not drawn) [Compound 12, (6E)-neomanoalide] | 37.8 µM | > 50 µg/mL | 79.2 µM | 119 µM | > 50 µg/mL | > 50 µg/mL | IC50 [8]: 24.4 µM
9 | CC1=C(CC/C(C)=C/CC/C(=C/CC2OC(=O)C=C2CO)CO)C(C)(C)CCC1 (stereo not drawn) [Compound 13, (6Z)-neomanoalide] | 34.1 µM | 88.7 µM | 59.3 µM | 94.7 µM | 114 µM | 92 µM | IC50 [8]: 13.9 µM
10 | CC1=C(CC/C(C)=C/CC/C(C=O)=C\C[C@@H](O)C2=CC(=O)OC2O)C(C)(C)CCC1 (stereo partly drawn) [Compound 14, seco-manoalide] | – | – | – | – | – | – | IC50 [1, 22]: 6.68 µM; IC50 (HepG2 (hepatocarcinoma); [23]): 102 µM; IC50 [2, 24]: 21.8 µM; IC50 [3, 25]: 47.4 µM; IC50 [4, 26]: 58.1 µM; IC50 [5, 27]: 84.1 µM; IC50 [6]: 17.5 µM
11 | CC(=O)O[C@H]1C[C@H]2[C@]3(C)CC[C@H]4C(C)(C)CCC[C@]4(C)[C@H]3C[C@@H](O)[C@]2(C)c2cocc21 [Compound 15, scalarafuran] | – | – | 63.1 µM | 49.1 µM | – | 14 µM | IC50 [10]: 51.4 µM; IC50 [11]: 58.4 µM; IC50 [12]: 28 µM
12 | CC1=C(CC[C@@](C)(O)[C@@H]2CCC(=O)O2)C(C)(C)CCC1 [Compound 16, cavernosine] | 124 µM | > 50 µg/mL | 77.5 µM | > 50 µg/mL | > 50 µg/mL | > 50 µg/mL | –
13 | CC(=O)O[C@@H]1CC2[C@@]3(C)CCCC(C)(C)C3CC[C@@]2(C)C2CCC3=C(C(=O)OC3)[C@]21C (stereo partly drawn) [Compound 17, 12-acetylscalarolide] | – | – | 63.1 µM | 60.8 µM | – | 60.8 µM | IC50 [10]: 107 µM; IC50 [11]: 63.1 µM; IC50 [12]: 42.1 µM
14 | CC1(C)CCC[C@@]2(C)C1CC[C@]1(C)C2C[C@@H](O)[C@]2(C)C3COC(=O)C3=CCC12 (stereo partly drawn) [Compound 18, 12-epi-O-deacetyl-19-deoxyscalarin] | – | – | 23.3 µM | 41.5 µM | – | 5.96 µM | IC50 [10]: 57 µM; IC50 [11]: 6.99 µM; IC50 [12]: 5.18 µM
15 | CC(=O)O[C@@H]1CC2[C@@]3(C)CCCC(C)(C)C3CC[C@@]2(C)C2CC=C3C(=O)OC(O)C3[C@]21C (stereo partly drawn) [Compound 19, 12-epi-scalarin] | 13.8 µM | 75.5 µM | 65.3 µM | 60.8 µM | 60.8 µM | – | –
16 | CC1(C)CCC[C@@]2(C)C1CC[C@]1(C)C2C[C@@H](O)[C@]2(C)C3C(=CCC12)C(=O)OC3O (stereo partly drawn) [Compound 20, 12-O-deacetyl-12-epi-scalarin] | 7.64 µM | 27.4 µM | – | 87.1 µM | 73.4 µM | – | selectivity index (SI), MOLT-3 [1]: 9; IC50 [6, 21]: 71 µM; IC50 (A549 cells): 36.8 µM
17 | COC(=O)c1cc2c(cn1)[nH]c1ccc(O)cc12 [Compound 23, variabine B] | 78 µM | > 50 µg/mL | > 50 µg/mL | > 50 µg/mL | > 50 µg/mL | – | –
18 | COc1cccc2c1C(=O)c1c(O)c3c(c(O)c1C2=O)C[C@@](O)(C(=O)CO)C[C@@H]3O[C@H]1C[C@H](N)[C@H](O)[C@H](C)O1 [Doxorubicin, reference compound] | – | 0.36 ± 0.05 µM | 0.19 µM | 0.4 ± 0.03 µM | 0.35 ± 0.02 µM | 1.64 ± 0.17 µM | IC50 [11]: 1.64 ± 0.15 µM; IC50 [6, 21]: 3.16 ± 0.1 µM
19 | COc1cc([C@@H]2c3cc4c(cc3[C@@H](O[C@@H]3O[C@@H]5CO[C@@H](C)O[C@H]5[C@H](O)[C@H]3O)[C@H]3COC(=O)[C@H]23)OCO4)cc(OC)c1O [Etoposide, reference compound] | 0.04 ± 0.01 µM | – | – | – | – | – | –
